These are literature values, as cited in patent publication US20040157932A1, “Supplements and foods comprising oleylethanolamide” (Natural ASA,, priority 2002, published 2004).

For series [1] the following is noted: rats.
Series [2] relates to CD-4 and CD-8 lymphocyte subpopulations; white blood cells.
Series [3] concerns human melanoma, colorectal and breast cancer cells. To be noted: in vitro.
Series [4] concerns rat mammary tumorigenesis. To be noted: administration of CLA.
For series [5] the following is noted: CLA in animal feed, birds and mammals.
For series [6] the following is noted: diet with 0.5 percent CLA.

With `CCCCCCC(C)OC(=O)CC(=O)CBr` (stereo not shown) [2-octyl y-gamma.-bromoacetoacetate], the FAAH inhibition entry in the series with FAAH is “potent”.
Turning to `CCCCCCCC/C=C\CCCCCCCC(=O)NCCO` [OEA, oleylethanolamide], in the series on cannabinoid receptors, the “activation of cannabinoid receptors” value was “does not activate”. For the same molecule, in series [1] (OEA in diet), the desire for food result is “reduced desire for food” and the weight gain entry is given as “decreased weight gain”. In addition, the “effect on the nervous system” value in series [1] (in contrast to currently available weight loss drugs) was “not effecting the nervous system”.
With conjugated linoleic acid [CLA], the “preserving white blood cells” value in series [2] (CLA in concentrations of about 0.1 to 1.0 percent) is listed as “effective adjuvant”. Besides, the “CD-4 and CD-8 lymphocyte subpopulations” value in series [2] (oral or parenteral administration, free acid or salt form) was “elevation”. Further, the “cytotoxicity against human melanoma, colorectal and breast cancer cells” value in series [3] is “strong cytotoxic agent”. The rat mammary tumorigenesis result in series [4] is “inhibits”. The “efficiency of feed conversion” value in series [5] was “increased the efficiency of feed conversion”. Further, in series [6], the body weight result is given as “no increase”. Further, in series [6] (pigs, mice, humans), the fat content result is “significant drop” and the protein mass result is given as “concomitant increase”.
